Source: patent publication US20060111445A1, “Novel carboxylic acids and derivatives for the treatment of and preventing diabetes and dyslipidaemia” (priority 2003, published 2006)

Legend:
[1] = tested on: vector expressing Gal4 alone; assay: Luciferase reporter control without the PPAR ligand binding domain in CV-1 cells; assay type: cell-based
Experimental: (§1) CV-1 cells (monkey kidney cells) are co-transfected with an expression vector for the chimeric proteins PPARα-Gal4 or PPARγ-Gal4 and with a “reporter” plasmid that allows the expression of the luciferase gene placed under the control of a promoter containing Gal4 response elements.
The cells are plated into 96-well microplates and co-transfected using a commercial reagent with the reporter plasmid (pG5-tk-pGL3) and the expression vector for the chimeric protein (PPARα-Gal4 or PPARγ-Gal4). After incubating for 4 hours, whole culture medium (comprising 10% foetal calf serum) is added to the wells. After 24 hours, the medium is removed and replaced with whole medium comprising the test products (50 μM final). […] The cells are then lysed and the luciferase activity is measured using a luminometer. A PPAR activation factor can then be calculated by means of the activation of the expression of the reporter gene induced by the product (relative to the control cells that have not received any product).
By way of example, the compound of Example 1, at a concentration of 50 μM, activates the chimeric protein PPARα-Gal4 by factor of 18, and the chimeric protein PPARγ-Gal4 by a factor of 39. In the absence of the binding domain for the PPAR α or γ ligand (vector expressing Gal4 alone), the luciferase activity measured in the presence of this product is zero.

[2] = biological target: T1, chimeric protein PPARα-Gal4 (Homo sapiens, UniProt Q07869); assay: PPAR activation, Gal4 chimera luciferase reporter in co-transfected CV-1 cells; assay type: cell-based; conditions: 50 μM, 18 hours contact, relative to control cells without product
T1 construct: Gal4 (fusion partner); expressed in transfected cells; host or cells: CV-1 cells (monkey kidney cells)
T1 sequence (Q07869 239-466 limits assumed): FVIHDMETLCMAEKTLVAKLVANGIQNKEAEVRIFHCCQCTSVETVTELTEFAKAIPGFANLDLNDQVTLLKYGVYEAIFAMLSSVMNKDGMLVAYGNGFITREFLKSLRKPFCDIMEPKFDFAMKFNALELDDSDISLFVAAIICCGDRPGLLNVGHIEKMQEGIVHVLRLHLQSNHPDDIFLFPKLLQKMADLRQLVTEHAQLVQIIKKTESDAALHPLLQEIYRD
Experimental: (§2) The measurement of the PPAR activation was performed according to a technique described by Lehmann et al. (1995, J. Biol. Chem. 270: 12953-12956).
as §1
(§3) The cells are plated into 96-well microplates and co-transfected using a commercial reagent with the reporter plasmid (pG5-tk-pGL3) and the expression vector for the chimeric protein (PPARα-Gal4 or PPARγ-Gal4). After incubating for 4 hours, whole culture medium (comprising 10% foetal calf serum) is added to the wells. After 24 hours, the medium is removed and replaced with whole medium comprising the test products (50 μM final). The products are left in contact with the cells for 18 hours. The cells are then lysed and the luciferase activity is measured using a luminometer. A PPAR activation factor can then be calculated by means of the activation of the expression of the reporter gene induced by the product (relative to the control cells that have not received any product).

[3] = biological target: T2, chimeric protein PPARγ-Gal4 (Homo sapiens, UniProt P37231); assay: as above; assay type: cell-based; conditions: 50 μM, 18 hours contact, relative to control cells without product
T2 construct: Gal4 (fusion partner); expressed in transfected cells; host or cells: CV-1 cells (monkey kidney cells)
T2 sequence (P37231 238-503 limits assumed): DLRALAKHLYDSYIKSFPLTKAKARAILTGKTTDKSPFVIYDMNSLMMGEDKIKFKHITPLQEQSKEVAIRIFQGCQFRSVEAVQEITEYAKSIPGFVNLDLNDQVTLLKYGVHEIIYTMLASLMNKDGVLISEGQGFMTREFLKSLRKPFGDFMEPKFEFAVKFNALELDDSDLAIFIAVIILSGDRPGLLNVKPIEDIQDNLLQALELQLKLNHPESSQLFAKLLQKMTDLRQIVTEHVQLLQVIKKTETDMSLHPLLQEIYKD
Experimental: as §2, §1, §3

| Structure (SMILES) | PPAR activation factor (activation of the chimeric protein PPARα-Gal4) [2] | PPAR activation factor (activation of the chimeric protein PPARγ-Gal4) [3] | melting point | luciferase activity in the absence of the binding domain for the PPAR α or γ ligand [1] |
| --- | --- | --- | --- | --- |
| CCCCCCc1cc2c(cc1OCCCC(=O)O)C(=O)CC2 [Example 1, 4-(6-hexyl-3-oxoindan-5-yloxy)butyric acid] | 18 | 39 | – | zero |
| CCCCCCc1cc2c(cc1NCC(=O)O)C(=O)CC2 [Example 36, (6-Hexyl-3-oxoindan-5-ylamino)acetic acid] | – | – | 110 °C | – |

The next lines start with results.

| PPAR activation factor (activation of the chimeric protein PPARα-Gal4) [2] | PPAR activation factor (activation of the chimeric protein PPARγ-Gal4) [3] | melting point | Structure (SMILES) | luciferase activity in the absence of the binding domain for the PPAR α or γ ligand [1] |
| --- | --- | --- | --- | --- |
| – | – | 148 °C | CCCCCCc1cc2c(cc1OCCCC(=O)O)C(=NO)CC2 [Example 24, 4-(6-hexyl-3-(hydroxyimino)-5-indanyloxy]butyric acid] | – |
| – | – | 144 °C | CCCCCCc1cc2c(cc1NCC(=O)O)C(=O)CC2 [Example 38, (6-Hexyl-3-oxoindan-5-ylamino)acetic acid] | – |
| – | – | 100 °C | CCCCCCc1cc2c(cc1SCCCC(=O)O)C(=O)CC2 [Example 42, 4-(6-hexyl-3-oxoindan-5-ylsulfanyl)butyric acid] | – |
